In brackets after ≈: the same amount, converted by molar mass.

The values below come from PMC11009625, “Antibiotic class with potent in vivo activity targeting lipopolysaccharide synthesis in Gram-negative bacteria” (Proceedings of the National Academy of Sciences of the …, 2024).

Common to all, as to format: cell-based
For one series, the system named is E. coli (EN122). The experiment in a line: MIC of E. coli strain used in the in vivo efficacy studies. Conditions: Escherichia coli. The method, then:
(§1) Minimum inhibitory concentration (MIC) values were determined according to the Clinical Laboratory Standards Institute guidelines. Frequency of resistance was determined by plating ~5 × 10^8 bacterial cells on agar-solidified media plates containing test compound at concentrations corresponding to four times the measured solid-media MIC of the strains. Colonies were counted after 24 h, restreaked onto media containing the same concentration of compound, and the MIC remeasured against the assayed compound. Genomic DNA from isolated clones was sequenced by paired-end sequencing on an Illumina MiSeq device. Complete experimental details available in SI Appendix.
(§2) Lantmännen) and water. […]
(§3) Safety testing in mice. […] Mice were extensively observed and toxicity signs were scored after 0-2, 5, […]
(§4) Plasma sample analysis by UPLC/MS/MS. Concentrations of EBL-3599 and EBL-3647 in mouse blood plasma were measured by liquid chromatography tandem mass spectrometry (LC/MS/MS) in positive electrospray ionization (ESI+) in multi reaction monitoring (MRM) mode. […]
(§5) A sample volume of 20 μL was transferred into a plastic tube and mixed with 300μL acetonitrile/methanol mixture (3:1, v/v) to precipitate proteins. […] Bioanalysis of samples from each mouse were measured in duplicate and the results averaged. […]

Another series relates to K. pneumoniae (EN124). The experiment in a line: MIC of K. pneumoniae strain used in the in vivo efficacy studies. Conditions: Klebsiella pneumoniae. The method, then:
as §1, §2, §3, §4, §5

Series [1] concerns efflux-defective E. coli. The experiment in a line: MIC in phenotypic screen, tolC-inactivated E. coli. The settings on record: Escherichia coli, read-out: MIC against efflux-defective E. coli. From the text:
In a search for new drug targets and starting points for antibiotic discovery, we initiated a series of phenotypic screens, based on publicly available chemical libraries and information gathered from the literature, focusing on compounds for which there was some evidence of Gram-negative antibacterial activity. In our initial screens, we evaluated activity against tolC-inactivated mutants of E. coli. The TolC protein is the outer membrane channel protein that is required for activity of several of the most important efflux pumps in E. coli, and inactivation of TolC essentially abolishes efflux pump activity ([27]). […] We successfully isolated resistant mutants against this compound. […] We resynthesized the AZ1 compound and confirmed the involvement of LpxH by WGS of selected resistant clones (SI Appendix, Table S1) ([24]–[26]). Both our own, and previously published mutations, map to the lipid X (enzymatic reaction product) binding site of LpxH (SI Appendix, Table S1 and Fig. S1A) ([23]). […]
Minimum inhibitory concentration (MIC) values were determined according to the Clinical Laboratory Standards Institute guidelines. Frequency of resistance was determined by plating ~5 × 10^8 bacterial cells on agar-solidified media plates containing test compound at concentrations corresponding to four times the measured solid-media MIC of the strains. […]

In series [2] the test system is efflux-defective E. coli. The experiment in a line: Frequency of resistance, efflux-defective E. coli. The settings on record: not told. The method, then: as §1, with “Appendix. […]” for “Appendix.”
Minimum inhibitory concentration (MIC) determination. […] Appropriate inoculation suspension density was assessed using a Sensititre Nephelometer with a Sensititre 0.5 […]
Frequency of Resistance. Frequency of resistance was assessed by spread plating between […] cfu of a freshly-grown culture of the strain of interest on plates containing a concentration of compound corresponding to 4 times the MIC of the strain (as determined by agar-dilution MIC). […] The frequency of resistance was determined by dividing the number of colonies obtained on the selective plates after 24 hours of growth by the calculated total population plated. […]

For `Cc1cc(C#N)nc(N2CCN(S(=O)(=O)c3ccc(NC(=O)c4cc(CN5CC(CN)C5)ccc4N(C)S(C)(=O)=O)cc3)CC2)n1` [EBL-3647], the minimum inhibitory concentration (MIC) in the series with E. coli (EN122) and in the series with K. pneumoniae (EN124) was 4 µg/mL in each case.
With `CN(c1ccccc1C(=O)Nc1ccc(S(=O)(=O)N2CCCCC2)cc1)S(C)(=O)=O` [JEDI-852], the minimum inhibitory concentration (MIC) with efflux-defective E. coli [1] lay in the range of 4 to 8 µg/mL (≈ 8.86 to 17.7 µM).
In the case of `CN(c1ccccc1C(=O)Nc1ccc(S(=O)(=O)N2CCN(c3cccc(C(F)(F)F)c3)CC2)cc1)S(C)(=O)=O` [JEDI-1444], the “Frequency of resistance in efflux-defective E. coli” value in the series on efflux-defective E. coli [2] was “low frequency of resistance”.
